Assay results published in paper PMC2975748 (Journal of molecular and cellular cardiology, 2010).

Target: cardiac troponin C (cTnC), regulatory N-domain (cNTnC) (Homo sapiens, UniProt P19429+P63316)
Test: 1H, […]-HSQC NMR titration
Format: binding

cardiac troponin C (cTnC), regulatory N-domain (cNTnC), sequence (P63316 1-89): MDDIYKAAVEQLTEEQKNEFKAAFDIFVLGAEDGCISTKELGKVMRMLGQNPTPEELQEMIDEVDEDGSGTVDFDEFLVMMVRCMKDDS
cardiac troponin C (cTnC), regulatory N-domain (cNTnC), sequence (P19429 145-164): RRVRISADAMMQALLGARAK

Q: Which Kd does the source give for `O=C(O)Cc1ccc(-c2ccc(F)cc2F)cc1` [dfbp, 2’ ,4’-difluoro(1,1’-biphenyl)-4-yl acetic acid] here?
A: 2820 ± 480 µM
